Assay results reported in patent publication US8334266B2, “Process for and intermediates in the preparation of canfosfamide and its salts” (Telik, Inc., priority 2004, dated 2012).
Structures can show the parent of a compound that is named as a salt.

Legend:
[1] = test system: M6709 human colon carcinoma cell line selected for resistance to doxorubicin; conditions: resistant line overexpresses GST P1-1; cited from earlier work
[2] = test system: MCF-7 human breast carcinoma cell line selected for resistance to cyclophosphamide; conditions: resistant line overexpresses GST P1-1; cited from earlier work
[3] = test system: M7609 engineered to have high, medium, and low levels of GST P1-1; conditions: murine xenografts; cited from earlier work
[4] = test system: in vitro cell culture and tumor biopsies; conditions: cited from earlier work
[5] = test system: ovarian, breast, non-small cell lung, and colorectal cancers; conditions: cited from earlier work
[6] = test system: HL-60 (promyeloid myelocytic leukemia)
Procedure: (§1) The human cancer cell lines HL-60 (promyeloid myelocytic leukemia) and MX-1 (breast carcinoma) were obtained from the National Cancer Institute, Bethesda, Md., U.S.A. The CellTiter-Glo assay kit was obtained from Promega Corporation, Madison, Wis., U.S.A, and was used in accordance with the manufacturer's directions. All assays were conducted in triplicate wells, with dimethyl sulfoxide (DMSO) solvent control. The extent of cell growth was expressed as a percentage of the signal from the solvent control wells.
(§2) Log-phase cells were trypsinized, collected by centrifugation, and resuspended in a small volume of fresh medium, and the density of viable cells was determined following Trypan Blue staining. Cells were diluted in fresh media (5×10^3 cells/mL for HL-60 and 3×10^3 cells/mL for MX-1 cells), Compound 4A (concentrations between 0.1 and 200 μM, dissolved in DMSO, 50 μL) added immediately after dilution to achieve a final DMSO concentration of 0.5%, then the suspensions added at 150 μL/well to 96-well plates, and incubated for several hours to allow attachment in the case of adherent cells. The cells were cultured for approximately three doubling times (3 days). The cells were then collected by centrifugation, and 100 μL of the culture supernatant was replaced by the CellTiter-Glo reagent. After incubation for 15 minutes at room temperature, and the plate was read with a luminometer.

[7] = test system: MX-1 (breast carcinoma); conditions: MX-1, cultured 3 days, CellTiter-Glo
Procedure: as §1, §2

In the case of N[C@@H](CCC(=O)N[C@@H](CS(=O)(=O)CCOP(=O)(N(CCCl)CCCl)N(CCCl)CCCl)C(=O)N[C@@H](C(=O)O)c1ccccc1)C(=O)O [canfosfamide, L-γ-glutamyl-3-[[2-[[bis[bis(2-chloroethyl)amino]phosphinyl]oxy]ethyl]sulfonyl]-L-alanyl-2-phenyl-(2R)-glycine], the “potency relative to parental cell line” value [1] is given as “more potent”, the “potency relative to parental cell line” value [2] is given as “more potent” and the “potency in relation to GST P1-1 level” value [3] is given as “positively correlated with the level of GST P1-1”. The “cross-resistance to platinum, paclitaxel, doxorubicin and gemcitabine” value [4] was “non-cross-resistant”.

In the case of N[C@@H](CCC(=O)N[C@@H](CS(=O)(=O)CCOP(=O)(N(CCCl)CCCl)N(CCCl)CCCl)C(=O)N[C@@H](C(=O)O)c1ccccc1)C(=O)O [Canfosfamide hydrochloride], the hematological toxicity ([5]; patients treated) is given as “very low incidence of clinically significant hematological toxicity”, the antitumor activity ([5]; single agent, colorectal and breast cancer) is given as “single agent antitumor activity” and the “antitumor activity and survival” value ([5]; single agent, patients with non-small cell lung cancer and ovarian cancer) is given as “significant single agent antitumor activity and improvement in survival”.

For O=C(CC[C@H](NC(=O)OCc1ccccc1)C(=O)O)N[C@@H](CS(=O)(=O)CCOP(=O)(N(CCCl)CCCl)N(CCCl)CCCl)C(=O)N[C@@H](C(=O)O)c1ccccc1 [Compound 4A, N-α-(benzyloxycarbonyl)-L-γ-glutamyl-3-[[2-[[bis[bis(2-chloroethyl)amino]phosphinyl]oxy]-ethyl]sulfonyl]-L-alanyl-2-phenyl-(2R)-glycine], the IC50 ([6]; HL-60, cultured 3 days, CellTiter-Glo) was 2.2 µM, the “potency compared with canfosfamide” value ([6]; in this assay (HL-60 and MX-1 cell lines)) was “approximately as potent as canfosfamide” and the IC50 [7] was 34.6 µM.
